Experiments:
Experiment in all cases: relative viability vs DMSO control (72 h) (fraction); higher = more viable cells
[1] = test system: SW684
Outline: (§1)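 Relative viability is percent growth read by ATPLite and averaged over up to triplicate wells. Sarcoma cells were seeded in 384-well plates to reach 80–90% confluence and given 2.5 µl of serially diluted compound after 24 h, from source plates of 10 mM to 0.0002 mM. Incubation lasted 72 h at 37 °C, 5% CO2, with 0.1% DMSO vehicle and a 5 µM positive control, and the data were rescaled so 1 equals full and 0 equals none.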

[2] = test system: A204
Outline: as §1

[3] = test system: SK-ES-1
Outline: as §1

[4] = test system: G401
Outline: as §1

[5] = test system: SK-LMS-1
Outline: as §1

[6] = test system: HS729
Outline: as §1

[7] = test system: SW872
Outline: as §1

[8] = test system: MES-SA
Outline: as §1

[9] = test system: SYO-1
Outline: as §1

[10] = test system: SW1353
Outline: as §1

[11] = test system: SW982
Outline: as §1

[12] = test system: KHOS-240S
Outline: as §1

CCS(=O)(=O)N1CC(CC#N)(n2cc(-c3ncnc4[nH]ccc34)cn2)C1 [Baricitinib]
Conditions	relative viability
[1], 0.00017 µM	1.06
[1], 0.00051 µM	1.04
[1], 0.00152 µM	1.12
[1], 0.00457 µM	1.09
[1], 0.01372 µM	1.13
[1], 0.04115 µM	1.07
[1], 0.1235 µM	1.09
[1], 0.3704 µM	1.03
[1], 1.111 µM	1.07
[1], 3.333 µM	1.05
[1], 10 µM	0.915
[2], 0.00017 µM	1.06
[2], 0.00051 µM	1.04
[2], 0.00152 µM	1.05
[2], 0.00457 µM	1.05
[2], 0.01372 µM	1.03
[2], 0.04115 µM	1.04
[2], 0.1235 µM	1.02
[2], 0.3704 µM	1.01
[2], 1.111 µM	0.971
[2], 3.333 µM	0.934
[2], 10 µM	0.83
[3], 0.00017 µM	0.959
[3], 0.00051 µM	1.01
[3], 0.00152 µM	1.004
[3], 0.00457 µM	0.986
[3], 0.01372 µM	0.9898
[3], 0.04115 µM	0.987
[3], 0.1235 µM	0.987
[3], 0.3704 µM	0.958
[3], 1.111 µM	1.04
[3], 3.333 µM	1.05
[3], 10 µM	1.01
[4], 0.00017 µM	0.955
[4], 0.00051 µM	0.9564
[4], 0.00152 µM	0.975
[4], 0.00457 µM	0.963
[4], 0.01372 µM	0.948
[4], 0.04115 µM	0.98
[4], 0.1235 µM	0.965
[4], 0.3704 µM	0.961
[4], 1.111 µM	0.978
[4], 3.333 µM	0.959
[4], 10 µM	0.887
[5], 0.00017 µM	1.06
[5], 0.00051 µM	1.07
[5], 0.00152 µM	1.07
[5], 0.00457 µM	1.03
[5], 0.01372 µM	1.02
[5], 0.04115 µM	1.07
[5], 0.1235 µM	1.06
[5], 0.3704 µM	1.04
[5], 1.111 µM	1.06
[5], 3.333 µM	1.01
[5], 10 µM	0.878
[6], 0.00017 µM	0.937
[6], 0.00051 µM	0.97
[6], 0.00152 µM	0.999
[6], 0.00457 µM	0.996
[6], 0.01372 µM	1
[6], 0.04115 µM	0.959
[6], 0.1235 µM	0.94
[6], 0.3704 µM	0.9518
[6], 1.111 µM	0.926
[6], 3.333 µM	0.9194
[6], 10 µM	0.87
[7], 0.00017 µM	1.014
[7], 0.00051 µM	1.01
[7], 0.00152 µM	1.03
[7], 0.00457 µM	1.03
[7], 0.01372 µM	1.05
[7], 0.04115 µM	1.04
[7], 0.1235 µM	1.03
[7], 0.3704 µM	1.03
[7], 1.111 µM	1.05
[7], 3.333 µM	1.01
[7], 10 µM	0.877
[8], 0.00017 µM	0.928
[8], 0.00051 µM	0.936
[8], 0.00152 µM	0.945
[8], 0.00457 µM	0.942
[8], 0.01372 µM	0.95
[8], 0.04115 µM	0.929
[8], 0.1235 µM	0.935
[8], 0.3704 µM	0.929
[8], 1.111 µM	0.893
[8], 3.333 µM	0.83
[8], 10 µM	0.753
[9], 0.00017 µM	0.994
[9], 0.00051 µM	1.01
[9], 0.00152 µM	1.01
[9], 0.00457 µM	0.994
[9], 0.01372 µM	0.999
[9], 0.04115 µM	0.993
[9], 0.1235 µM	0.988
[9], 0.3704 µM	0.985
[9], 1.111 µM	0.988
[9], 3.333 µM	0.952
[9], 10 µM	0.897
[10], 0.00017 µM	0.952
[10], 0.00051 µM	0.931
[10], 0.00152 µM	0.977
[10], 0.00457 µM	0.975
[10], 0.01372 µM	0.947
[10], 0.04115 µM	0.961
[10], 0.1235 µM	0.953
[10], 0.3704 µM	0.969
[10], 1.111 µM	0.985
[10], 3.333 µM	0.915
[10], 10 µM	0.786
[11], 0.00017 µM	0.981
[11], 0.00051 µM	0.983
[11], 0.00152 µM	0.976
[11], 0.00457 µM	0.985
[11], 0.01372 µM	1.0047
[11], 0.04115 µM	0.98
[11], 0.1235 µM	0.987
[11], 0.3704 µM	0.993
[11], 1.111 µM	0.98
[11], 3.333 µM	0.966
[11], 10 µM	0.748
[12], 0.00017 µM	1.035
[12], 0.00051 µM	1.022
[12], 0.00152 µM	1.037
[12], 0.00457 µM	1.04
[12], 0.01372 µM	1.03
[12], 0.04115 µM	1.019
[12], 0.1235 µM	1.05
[12], 0.3704 µM	1.03
[12], 1.111 µM	1.04
[12], 3.333 µM	0.958
[12], 10 µM	0.7777

— the supplement of paper PMC10883282
